Drawing on patent US7704995B2 (Exelixis, Inc., priority 2003, dated 2010), this text covers IC50 for 28 molecules.

In general, IC50 refers to the concentration that inhibits the measured activity by half.

The target of the test is T1, Chk1 (Homo sapiens, UniProt O14757).
T1 construct: purchased Upstate Biotechnology
T1 sequence (O14757 1-476): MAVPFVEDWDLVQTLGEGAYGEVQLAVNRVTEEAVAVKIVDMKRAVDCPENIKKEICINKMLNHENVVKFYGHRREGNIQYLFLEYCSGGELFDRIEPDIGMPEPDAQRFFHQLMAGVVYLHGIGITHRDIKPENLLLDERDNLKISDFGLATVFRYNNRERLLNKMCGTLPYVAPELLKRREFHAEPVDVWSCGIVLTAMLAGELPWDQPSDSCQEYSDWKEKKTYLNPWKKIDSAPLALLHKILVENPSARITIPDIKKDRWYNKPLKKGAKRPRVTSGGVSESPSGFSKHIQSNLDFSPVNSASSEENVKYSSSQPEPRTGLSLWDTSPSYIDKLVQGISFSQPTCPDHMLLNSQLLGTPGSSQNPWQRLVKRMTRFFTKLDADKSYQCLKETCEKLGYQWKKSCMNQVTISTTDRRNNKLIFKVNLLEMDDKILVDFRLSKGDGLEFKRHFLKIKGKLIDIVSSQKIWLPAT
Nature of the test: Chk1 kinase assay: incorporation of γ-33P ATP into immobilized myelin basic protein. Format: biochemical. Conditions: Table 11; Chk1 only; read-out: Chk1 IC50. In short, it runs like this: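 Plates coated with MBP, then kinase reactions in Hepes pH 7.6 buffer with 10 mM MgCl2 and 1% DMSO were started by adding unlabeled plus γ-33P ATP (10 μM for Chk1 at 10 nM enzyme; 30 μM for Chk2 at 20 nM enzyme). After 1 h at room temperature, plates were washed and counted.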

Take `Nc1ncc(-c2cccc(C(=O)N[C@H]3CCc4ccccc43)c2)nc1C(=O)N[C@H]1CCNC1` [Example 644, 3-amino-6-(3-{[(1S)-2,3-dihydro-1H-inden-1-ylamino]carbonyl}phenyl)-N-[(3S)-pyrrolidin-3-yl]pyrazine-2-carboxamide]: the IC50 was below 0.05 µM.
Consider `Nc1ncc(-c2cccc(C(=O)N[C@H]3CCc4ccccc43)c2)nc1C(=O)N[C@@H]1CCNC1` [Example 645, 3-amino-6-(3-{[(1S)-2,3-dihydro-1H-inden-1-ylamino]carbonyl}phenyl)-N-[(3R)-pyrrolidin-3-yl]pyrazine-2-carboxamide], for which the IC50 was 0.05 to 1 µM.
As to `Nc1ncc(-c2cccc(C(=O)N[C@H]3CCc4ccccc43)c2)nc1C(=O)N[C@H]1CCN(C(=O)c2ccco2)C1` [Example 646, 3-amino-6-(3-{[(1S)-2,3-dihydro-1H-inden-1-ylamino]carbonyl}phenyl)-N-[(3S)-1-(furan-2-ylcarbonyl)pyrrolidin-3-yl]pyrazine-2-carboxamide], the IC50 fell in the range of 1 to 10 µM.
Regarding `CC(=O)NCCCNC(=O)c1nc(-c2cccc(C(=O)NCc3ccccc3)c2)cnc1N` [Example 647, N-[3-(acetylamino)propyl]-3-amino-6-(3-{[(phenylmethyl)amino]carbonyl}phenyl)pyrazine-2-carboxamide], the IC50 is 1 to 10 µM.
As for `Nc1ncc(-c2cccc(C(=O)NCc3ccccc3)c2)nc1C(=O)NCCCNC(=O)c1ccco1` [Example 648, 3-amino-N-{3-[(furan-2-ylcarbonyl)amino]propyl}-6-(3-{[(phenylmethyl)amino]carbonyl}phenyl)pyrazine-2-carboxamide], the figure is 1 to 10 µM; as for `Nc1ncc(-c2cccc(C(=O)N[C@H]3CCc4ccccc43)c2)nc1C(=O)N[C@H]1CCN(C(=O)c2ccncc2)C1` [Example 649, 3-amino-6-(3-{[(1S)-2,3-dihydro-1H-inden-1-ylamino]carbonyl}phenyl)-N-[(3S)-1-(pyridin-4-ylcarbonyl)pyrrolidin-3-yl]pyrazine-2-carboxamide], at least 10 µM; as for `Nc1ncc(-c2cccc(C(=O)NCc3ccccc3)c2)nc1C(=O)NCCCNC(=O)c1ccncc1` [Example 650, 3-amino-6-(3-{[(phenylmethyl)amino]carbonyl}phenyl)-N-{3-[(pyridin-4-ylcarbonyl)amino]propyl}pyrazine-2-carboxamide], 1 to 10 µM.
The figure for `Nc1ncc(-c2cccc(C(=O)NCc3ccccc3)c2)nc1C(=O)NCCCNC(=O)c1cnc2ccccc2n1` [Example 651, N-[3-({[3-amino-6-(3-{[(phenylmethyl)amino]carbonyl}phenyl)pyrazin-2-yl]carbonyl}amino)propyl]quinoxaline-2-carboxamide] is at least 10 µM; for `Nc1ncc(-c2cccc(C(=O)NCc3ccccc3)c2)nc1C(=O)NCCCNC(=O)c1ccc(C(F)(F)F)nc1` [Example 652, 3-amino-6-(3-{[(phenylmethyl)amino]carbonyl}phenyl)-N-[3-({[6-(trifluoromethyl)pyridin-3-yl]carbonyl}amino)propyl]pyrazine-2-carboxamide] it is at least 10 µM; for `Nc1ncc(-c2cccc(C(=O)NCc3ccccc3)c2)nc1C(=O)NCCCNS(=O)(=O)c1cccc2cccnc12` [Example 653, 3-amino-6-(3-{[(phenylmethyl)amino]carbonyl}phenyl)-N-{3-[(quinolin-8-ylsulfonyl)amino]propyl}pyrazine-2-carboxamide] it is at least 10 µM.
As for `Nc1ncc(-c2cccc(C(=O)NCc3ccccc3)c2)nc1C(=O)NCCCNS(=O)(=O)c1ccccn1` [Example 654, 3-amino-6-(3-{[(phenylmethyl)amino]carbonyl}phenyl)-N-{3-[(pyridin-2-ylsulfonyl)amino]propyl}pyrazine-2-carboxamide], the figure is 1 to 10 µM; as for `Cc1noc(C)c1NC(=O)NCCCNC(=O)c1nc(-c2cccc(C(=O)NCc3ccccc3)c2)cnc1N` [Example 655, 3-amino-N-[3-({[(3,5-dimethylisoxazol-4-yl)amino]carbonyl}amino)propyl]-6-(3-{[(phenylmethyl)amino]carbonyl}phenyl)pyrazine-2-carboxamide], 1 to 10 µM.
`Cc1nccc(-c2nc(-c3cccc(C(=O)NCc4ccccc4)c3)cnc2N)n1` [Example 656, 3-[5-amino-6-(2-methylpyrimidin-4-yl)pyrazin-2-yl]-N-(phenylmethyl)benzamide]: the IC50 lay in the range of 1 to 10 µM.
As for `CNc1nccc(-c2nc(-c3cccc(C(=O)NCc4ccccc4)c3)cnc2N)n1` [Example 657, 3-{5-amino-6-[2-(methylamino)pyrimidin-4-yl]pyrazin-2-yl}-N-(phenylmethyl)benzamide], the figure is at least 10 µM.
As for `Nc1ncc(-c2cccc(C(=O)NCc3ccccc3)c2)nc1C(=O)NCCNC(=O)c1ccncc1` [Example 658, 3-amino-6-(3-{[(phenylmethyl)amino]carbonyl}phenyl)-N-{2-[(pyridin-4-ylcarbonyl)amino]ethyl}pyrazine-2-carboxamide], the figure is 1 to 10 µM.
Take `Nc1ncc(-c2cccc(C(=O)NCc3ccccc3)c2)nc1C(=O)NCCNC(=O)c1ccco1` [Example 659, 3-amino-N-{2-[(furan-2-ylcarbonyl)amino]ethyl}-6-(3-{[(phenylmethyl)amino]carbonyl}phenyl)pyrazine-2-carboxamide]: the IC50 was at least 10 µM.
As for `Nc1ncc(-c2cccc(C(=O)NCc3ccccc3)c2)nc1C(=O)NC1CCCCC1NC(=O)c1nc(-c2cccc(C(=O)NCc3ccccc3)c2)cnc1N` (stereo not shown) [Example 660, N,N′-cyclohexane-1,2-diylbis[3-amino-6-(3-{[(phenylmethyl)amino]carbonyl}phenyl)pyrazine-2-carboxamide]], the figure is at least 10 µM; as for `CC(=O)NCCNC(=O)c1nc(-c2cccc(C(=O)NCc3ccccc3)c2)cnc1N` [Example 661, N-[2-(acetylamino)ethyl]-3-amino-6-(3-{[(phenylmethyl)amino]carbonyl}phenyl)pyrazine-2-carboxamide], 1 to 10 µM.
As for `Nc1ncc(-c2cccc(C(=O)NCc3ccccc3)c2)nc1C(=O)NCCNS(=O)(=O)c1cccc2cccnc12` [Example 662, 3-amino-6-(3-{[(phenylmethyl)amino]carbonyl}phenyl)-N-{2-[(quinolin-8-ylsulfonyl)amino]ethyl}pyrazine-2-carboxamide], the figure is at least 10 µM; as for `Nc1ncc(-c2cccc(C(=O)NCc3ccccc3)c2)nc1C(=O)NCCNC(=O)c1cnc2ccccc2n1` [Example 663, N-[2-({[3-amino-6-(3-{[(phenylmethyl)amino]carbonyl}phenyl)pyrazin-2-yl]carbonyl}amino)ethyl]quinoxaline-2-carboxamide], at least 10 µM; as for `Nc1ncc(-c2cccc(C(=O)NCc3ccccc3)c2)nc1C(=O)NCCNC(=O)c1cccnc1Cl` [Example 664, 3-amino-N-(2-{[(2-chloropyridin-3-yl)carbonyl]amino}ethyl)-6-(3-{[(phenylmethyl)amino]carbonyl}phenyl)pyrazine-2-carboxamide], 1 to 10 µM.
As for `Nc1ncc(-c2cccc(C(=O)NCc3ccccc3)c2)nc1C(=O)NCCNS(=O)(=O)c1ccccn1` [Example 665, 3-amino-6-(3-{[(phenylmethyl)amino]carbonyl}phenyl)-N-{2-[(pyridin-2-ylsulfonyl)amino]ethyl}pyrazine-2-carboxamide], the figure is at least 10 µM.
Turning to `Cc1noc(C)c1NC(=O)NCCNC(=O)c1nc(-c2cccc(C(=O)NCc3ccccc3)c2)cnc1N` [Example 666, 3-amino-N-[2-({[(3,5-dimethylisoxazol-4-yl)amino]carbonyl}amino)ethyl]-6-(3-{[(phenylmethyl)amino]carbonyl}phenyl)pyrazine-2-carboxamide], the IC50 lay in the range of 1 to 10 µM.
As for `NC(=O)c1nc(-c2cccc(C(=O)NCc3ccccc3)c2)cnc1N` [Example 667, 3-amino-6-(3-{[(phenylmethyl)amino]carbonyl}phenyl)pyrazine-2-carboxamide], the figure is 0.05 to 1 µM.
As for `N=C(NNc1nccc(C(F)(F)F)n1)c1nc(-c2cccc(C(=O)NCc3ccccc3)c2)cnc1N` [Example 668, 3-[5-amino-6-(imino{2-[4-(trifluoromethyl)pyrimidin-2-yl]hydrazino}methyl)pyrazin-2-yl]-N-(phenylmethyl)benzamide], the IC50 lay within 1 to 10 µM.
Turning to `N=C(NNc1nc2ccccc2s1)c1nc(-c2cccc(C(=O)NCc3ccccc3)c2)cnc1N` [Example 669, 3-{5-amino-6-[[2-(1,3-benzothiazol-2-yl)hydrazino](imino)methyl]pyrazin-2-yl}-N-(phenylmethyl)benzamide], the IC50 was at least 10 µM.
The figure for `Nc1ncc(-c2cccc(C(=O)NCc3ccccc3)c2)nc1-c1nc(-c2ccccc2)n(-c2ccccc2)n1` [Example 670, 3-[5-amino-6-(1,5-diphenyl-1H-1,2,4-triazol-3-yl)pyrazin-2-yl]-N-(phenylmethyl)benzamide] is at least 10 µM.
The figure for `Cc1nc(-c2nc(-c3cccc(C(=O)NCc4ccccc4)c3)cnc2N)nn1C` [Example 671, 3-[5-amino-6-(1,5-dimethyl-1H-1,2,4-triazol-3-yl)pyrazin-2-yl]-N-(phenylmethyl)benzamide] is 1 to 10 µM.
